Source: ChEMBL document CHEMBL1201862, “PubChem BioAssay data set” (2004)
Values joined by “and” are separate entries in the source; they are usually repeats but may differ in a detail not shown here. Identical values can stand only once.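 Following 48 hours of exposure in 96-well plates, responses at five concentrations were used to interpolate endpoints linearly. Abbreviation: GI50, concentration required for 50% inhibition of growth.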 Active and inactive are the calls of the source. Rule as the data show it: active = GI50 up to about 1.1 µM and inactive = higher.

Columns and labels:
Experiment in all cases: NCI-60 cell line screen, 48 h
[1] = system: EKVX
[2] = system: SNB-19
[3] = system: ACHN
[4] = system: SF-268
[5] = system: RXF 393
[6] = system: SF-295
[7] = system: RPMI-8226
[8] = system: MOLT-4
[9] = system: UACC-257
[10] = system: KM12
[11] = system: CAKI-1
[12] = system: Malme-3M
[13] = system: COLO 205
[14] = system: SNB-75
[15] = system: 786-0
[16] = system: NCI-H226
[17] = system: OVCAR-4
[18] = system: UACC-62
[19] = system: BT-549

Row | SMILES | GI50 [1] | GI50 [2] | GI50 [3] | GI50 [4] | GI50 [5] | GI50 [6] | GI50 [7] | GI50 [8] | GI50 [9] | GI50 [10] | GI50 [11] | GI50 [12] | GI50 [13] | GI50 [14] | GI50 [15] | GI50 [16] | GI50 [17] | GI50 [18] | GI50 [19]
1 | CC(=O)c1sc2c(c1OC(=O)c1ccc(Cl)cc1Cl)c(=O)n(-c1ccccc1)c(=S)n2-c1ccccc1 | 6.55 µM (inactive) | 0.673 µM (active) | 0.321 µM (active) | 0.552 µM (active) | 0.382 µM (active) | 0.267 µM (active) | 0.213 µM (active) | 0.14 µM (active) | 3.88 µM (inactive) | 4.14 µM (inactive) | 1.43 µM (inactive) | 0.252 µM (active) | 1.07 µM (active) | 0.472 µM (active) | 0.47 µM (active) | 0.258 µM (active) | 13.2 µM (inactive) | 10.8 µM (inactive) | –
2 | C/C=C1\CN(C(=O)OC(C)(C)C)C1C(=O)OC(C)(C)C (configuration not stated) | > 100 µM (inactive) | > 100 µM (inactive) | > 100 µM (inactive) | > 100 µM (inactive) | – | > 100 µM (inactive) | 68.7 µM (inactive) | > 100 µM (inactive) | > 100 µM (inactive) | – | > 100 µM (inactive) | > 100 µM (inactive) | > 100 µM (inactive) | – | > 100 µM (inactive) | – | 53.6 µM (inactive) | > 100 µM (inactive) | > 100 µM (inactive)
3 | COc1ccc(C2Oc3c(OC)cc(CCCO)cc3C2CO)cc1OC (configuration not stated) | 61.4 µM (inactive) and 39.9 µM (inactive) | > 100 µM (inactive) | > 100 µM (inactive) and 76.6 µM (inactive) | > 100 µM (inactive) | > 100 µM (inactive) | 50.4 µM (inactive) and 70.8 µM (inactive) | – | 42.5 µM (inactive) and 26.9 µM (inactive) | – | > 100 µM (inactive) and 79.3 µM (inactive) | – | > 100 µM (inactive) and 50.7 µM (inactive) | > 100 µM (inactive) | > 100 µM (inactive) and 77.3 µM (inactive) | > 100 µM (inactive) | > 100 µM (inactive) | > 100 µM (inactive) | 54.6 µM (inactive) and 83.9 µM (inactive) | 96.2 µM (inactive) and 50.7 µM (inactive)
4 | COC(=O)C1=C(C(=O)OC)C(Cc2ccccc2)(OO)OC1=O (configuration not stated) | 11.3 µM (inactive) | 22 µM (inactive) | 2.99 µM (inactive) | – | 4.94 µM (inactive) | 29.5 µM (inactive) | – | 3.64 µM (inactive) | 4.38 µM (inactive) | 19.1 µM (inactive) | 4.82 µM (inactive) | 6.22 µM (inactive) | 7.19 µM (inactive) | 9.33 µM (inactive) | 2.95 µM (inactive) | 5.46 µM (inactive) | 16 µM (inactive) | 3.52 µM (inactive) | 6.32 µM (inactive)
5 | CCOC(=O)C1(C/C=C/CBr)Cc2ccccc2C1=O (configuration not stated) | 14.6 µM (inactive) | 5.45 µM (inactive) | 2.43 µM (inactive) | 2.91 µM (inactive) | 1.55 µM (inactive) | 8.57 µM (inactive) | 2.02 µM (inactive) | 2.49 µM (inactive) | 8.17 µM (inactive) | 3.07 µM (inactive) | 2.42 µM (inactive) | 2.76 µM (inactive) | 3.21 µM (inactive) | 5.86 µM (inactive) | 3.85 µM (inactive) | – | 2.03 µM (inactive) | 2.14 µM (inactive) | 2.95 µM (inactive)
6 | COc1ccc2nc3cc(Cl)ccc3c(NCCCNCc3cc(OC)c(OC)c(OC)c3)c2c1 | 1.47 µM (inactive) | 1.83 µM (inactive) | 1.62 µM (inactive) | 1.67 µM (inactive) | 1.46 µM (inactive) | 1.51 µM (inactive) | 1.53 µM (inactive) | 0.515 µM (active) | 1.94 µM (inactive) | 1.64 µM (inactive) | 1.71 µM (inactive) | 2.23 µM (inactive) | 1.31 µM (inactive) | – | 1.4 µM (inactive) | 1.67 µM (inactive) | 1.78 µM (inactive) | 1.91 µM (inactive) | 1.76 µM (inactive)
7 | O=C(CC(c1ccccc1)C1C(=O)NC(=S)NC1=O)c1ccc([N+](=O)[O-])cc1 (configuration not stated) | 31.8 µM (inactive) | > 100 µM (inactive) | > 100 µM (inactive) | 72.8 µM (inactive) | – | > 100 µM (inactive) | 45.9 µM (inactive) | > 100 µM (inactive) | > 100 µM (inactive) | 65.2 µM (inactive) | 22.4 µM (inactive) | > 100 µM (inactive) | > 100 µM (inactive) | > 100 µM (inactive) | > 100 µM (inactive) | > 100 µM (inactive) | > 100 µM (inactive) | > 100 µM (inactive) | > 100 µM (inactive)
8 | Cc1cc(C)c(N[S+]([O-])c2cccc([N+](=O)[O-])c2)c(C)c1 (configuration not stated) | – | > 100 µM (inactive) | > 100 µM (inactive) | > 100 µM (inactive) | > 100 µM (inactive) | > 100 µM (inactive) | > 100 µM (inactive) | > 100 µM (inactive) | > 100 µM (inactive) | > 100 µM (inactive) | – | > 100 µM (inactive) | > 100 µM (inactive) | – | > 100 µM (inactive) | > 100 µM (inactive) | – | – | > 100 µM (inactive)
9 | COC(=O)c1c(O)ccc2[nH]c3c(O)c4ccccc4cc3c12 | 16.8 µM (inactive) | 41.7 µM (inactive) | 27.9 µM (inactive) | 21.9 µM (inactive) | 31.3 µM (inactive) | 18.9 µM (inactive) | 17.4 µM (inactive) | 37.2 µM (inactive) | 34.1 µM (inactive) | 16 µM (inactive) | 18.5 µM (inactive) | 20.2 µM (inactive) | 18.3 µM (inactive) | – | 32 µM (inactive) | 65.8 µM (inactive) | 25.5 µM (inactive) | 61.4 µM (inactive) | 39.3 µM (inactive)
10 | CC1C2CC(CC2N)C1(C)C (configuration not stated) | > 100 µM (inactive) | > 100 µM (inactive) | > 100 µM (inactive) | > 100 µM (inactive) | – | > 100 µM (inactive) | – | > 100 µM (inactive) | > 100 µM (inactive) | > 100 µM (inactive) | > 100 µM (inactive) | > 100 µM (inactive) | > 100 µM (inactive) | > 100 µM (inactive) | > 100 µM (inactive) | > 100 µM (inactive) | > 100 µM (inactive) | > 100 µM (inactive) | > 100 µM (inactive)
11 | O=C1Nc2cccc(Cl)c2/C1=C\c1cccnc1 | 17.6 µM (inactive) | 3.7 µM (inactive) | 10.8 µM (inactive) | 7.24 µM (inactive) | 2.83 µM (inactive) | 16.7 µM (inactive) | – | 4.23 µM (inactive) | 5.06 µM (inactive) | 5.96 µM (inactive) | 10.2 µM (inactive) | 9.93 µM (inactive) | 3.32 µM (inactive) | 15.5 µM (inactive) | 7.43 µM (inactive) | – | 12.7 µM (inactive) | – | 8.53 µM (inactive)
12 | O=c1c2cc(I)ccc2nc(-c2cccs2)n1-c1ccc(O)cc1 | 14.4 µM (inactive) | 16.6 µM (inactive) | 8.2 µM (inactive) | 14.1 µM (inactive) | 14.8 µM (inactive) | 12.6 µM (inactive) | 3.37 µM (inactive) | 6.04 µM (inactive) | < 0.01 µM (active) | 11.2 µM (inactive) | 17.1 µM (inactive) | 5.4 µM (inactive) | 17.2 µM (inactive) | – | 16.3 µM (inactive) | 14.4 µM (inactive) | 12.6 µM (inactive) | 13.1 µM (inactive) | 14.5 µM (inactive)
13 | O=C(O)Cc1ccc2nc(COC(=O)c3ccccc3)sc2c1 | > 100 µM (inactive) | > 100 µM (inactive) | > 100 µM (inactive) | > 100 µM (inactive) | > 100 µM (inactive) | > 100 µM (inactive) | > 100 µM (inactive) | – | > 100 µM (inactive) | > 100 µM (inactive) | > 100 µM (inactive) | > 100 µM (inactive) | > 100 µM (inactive) | > 100 µM (inactive) | > 100 µM (inactive) | – | > 100 µM (inactive) | > 100 µM (inactive) | > 100 µM (inactive)
14 | Fc1cccc(F)c1C1SCc2nc3cc(Cl)ccc3n21 (configuration not stated) | 36.6 µM (inactive) | 92.5 µM (inactive) | 31.3 µM (inactive) | > 100 µM (inactive) | 48.8 µM (inactive) | 33.2 µM (inactive) | 22.7 µM (inactive) | 14 µM (inactive) | 32.8 µM (inactive) | 22.8 µM (inactive) | 16.6 µM (inactive) | 17 µM (inactive) | 17.9 µM (inactive) | 40.1 µM (inactive) | 25.7 µM (inactive) | – | 35.9 µM (inactive) | 37.9 µM (inactive) | 21.9 µM (inactive)
15 | O=c1c(-c2ccccc2F)coc2cc(F)ccc12 | > 100 µM (inactive) | > 100 µM (inactive) | > 100 µM (inactive) | > 100 µM (inactive) | > 100 µM (inactive) | > 100 µM (inactive) | – | > 100 µM (inactive) | > 100 µM (inactive) | > 100 µM (inactive) | > 100 µM (inactive) | – | > 100 µM (inactive) | 24.2 µM (inactive) | 79.6 µM (inactive) | > 100 µM (inactive) | > 100 µM (inactive) | > 100 µM (inactive) | 99.1 µM (inactive)
16 | C/C=C1/C[C@@H](C)[C@@](C)(O)C(=O)OCC2=CC[N+]3([O-])CC[C@@H](OC1=O)[C@@H]23 (some centres not stated) [SENECIONINE N-OXIDE] | > 100 µM (inactive) | > 100 µM (inactive) | > 100 µM (inactive) | > 100 µM (inactive) | – | > 100 µM (inactive) | – | > 100 µM (inactive) | > 100 µM (inactive) | > 100 µM (inactive) | > 100 µM (inactive) | 94.6 µM (inactive) | > 100 µM (inactive) | > 100 µM (inactive) | > 100 µM (inactive) | > 100 µM (inactive) | > 100 µM (inactive) | > 100 µM (inactive) | > 100 µM (inactive)
